Experiments:
OXA-48 strains [1] = conditions: Livermore et al., cited from earlier work
OXA-48 strains [2] = test: Prototype medium, strains detected (Example 3); type: cell-based, Enterobacteriaceae; conditions: 24 hours of incubation
Method: (§1) The media are prepared in 55 mm diameter Petri dishes. They are inoculated using a bacterial suspension in physiological saline at 0.5 McF for the non-OXA-48 strains and with a 1/100 and 1/10 000 dilution of a suspension at 0.5 McF for the OXA-48 strains. The inoculation consists of 3-quadrant streaking using a 10 μl calibrated loop: theoretical deposit of 10^4 or 10^2 CFU for the OXA-48 strains and of 10^6 CFU for the strains not producing OXA-48.
(§2) The media are incubated at 37° C. The readings will be carried out after 18 and 24 hours of incubation.
(§3) The growth density, the colony sizes and also the coloration (color and strength) are evaluated.
(§4) Reaction medium identical to the base used for example 1. A selective system comprising a mixture of antibiotics and antifungals which is specific for Gram-positives, yeasts and Gram-negatives which are non-fermenting, and also cloxacillin and EDTA, is also added.
(§5) A medium at 200 mg/l of temocillin is tested without selective system as indicated above.

Non-OXA-48 strains = test: Prototype medium, strains detected (Example 3); type: cell-based, Enterobacteriaceae; conditions: Non-OXA-48 deposit of 10^6 CFU; temocillin 300 mg/l; 24 hours
Method: as §1, §2, §3, §4, §5

BLSE strains = test: Temocillin MIC with EDTA in the medium (Example 2); type: cell-based, Enterobacteriaceae; conditions: Ex 2, MIC in mg/l
Excerpt: (§6) Optimization of the Detection Specificity by Introducing Specific Inhibitors Inhibition of Class B Strains (NDM, VIM, IMP) by Adding EDTA
(§7) Identical to that used to determine the temocillin MICs by agar dilution (example 1).
(§8) For each temocillin concentration, the following concentrations of active EDTA will be tested in the form of disodium EDTA: 0, 1.77, 2.12, 2.47 and 2.83 mmol/l.
(§9) Method: identical to the method used in example 1.

IMP strains = test: Temocillin MIC with EDTA in the medium (Example 2); type: cell-based, Enterobacteriaceae; conditions: Ex 2, MIC in mg/l
Excerpt: as §6, §7, §8, §9

OXA-48 strains [3] = test: Temocillin MIC with EDTA in the medium (Example 2); type: cell-based, Enterobacteriaceae; conditions: Ex 2, MIC in mg/l
Excerpt: as §6, §7, §8, §9

KPC strains = test: Temocillin MIC with EDTA in the medium (Example 2); type: cell-based, Enterobacteriaceae; conditions: Ex 2, MIC in mg/l
Excerpt: as §6, §7, §8, §9

[4] = system: strains with a metallo-carbapenemase; conditions: Livermore et al.; cited from earlier work

## CO[C@@]1(NC(=O)C(C(=O)O)c2ccsc2)C(=O)N2[C@@H](C(=O)O)C(C)(C)S[C@@H]21 (some centres unmarked) [temocillin]
OXA-48 strains [1]; OXA-48 strains
  strains resistant to temocillin: 18/19
OXA-48 strains [1]; resistant strains, growth at final concentration tested of 128 mg/l
  minimum inhibitory concentration (MIC): ≥ 256 µg/mL
OXA-48 strains [2]; OXA-48 deposit of 10^2 CFU, temocillin 200 mg/l without selective system
  No. of strains detected: 15/15
OXA-48 strains [2]; OXA-48 deposit of 10^2 CFU, temocillin 200 mg/l
  No. of strains detected: 15/15
OXA-48 strains [2]; OXA-48 deposit of 10^2 CFU, temocillin 300 mg/l
  No. of strains detected: 15/15
OXA-48 strains [2]; OXA-48 deposit of 10^2 CFU, temocillin 500 mg/l
  No. of strains detected: 9/15
OXA-48 strains [2]; OXA-48 deposit of 10^4 CFU, temocillin 200 mg/l without selective system
  No. of strains detected: 15/15
OXA-48 strains [2]; OXA-48 deposit of 10^4 CFU, temocillin 200 mg/l
  No. of strains detected: 15/15
OXA-48 strains [2]; OXA-48 deposit of 10^4 CFU, temocillin 300 mg/l
  No. of strains detected: 15/15
OXA-48 strains [2]; OXA-48 deposit of 10^4 CFU, temocillin 400 mg/l
  No. of strains detected: 15/15
OXA-48 strains [2]; OXA-48 deposit of 10^4 CFU, temocillin 500 mg/l
  No. of strains detected: 12/15
Non-OXA-48 strains
  No. of strains detected: 1/13
BLSE strains; 0 mmol/l of EDTA
  No. of BLSE strains with MIC 150: 0
  No. of BLSE strains with MIC 200: 0
  No. of BLSE strains with MIC 300: 0
  No. of BLSE strains with MIC >300: 0
  No. of BLSE strains with MIC ≦50: 10
BLSE strains; 1.77 mmol/l of active EDTA
  No. of BLSE strains with MIC 150: 0
  No. of BLSE strains with MIC 200: 0
  No. of BLSE strains with MIC 300: 0
  No. of BLSE strains with MIC >300: 0
  No. of BLSE strains with MIC ≦50: 10
BLSE strains; 2.12 mmol/l of active EDTA
  No. of BLSE strains with MIC 150: 1
  No. of BLSE strains with MIC 200: 0
  No. of BLSE strains with MIC 300: 0
  No. of BLSE strains with MIC >300: 0
  No. of BLSE strains with MIC ≦50: 9
BLSE strains; 2.47 mmol/l of active EDTA
  No. of BLSE strains with MIC 150: 0
  No. of BLSE strains with MIC 200: 0
  No. of BLSE strains with MIC 300: 0
  No. of BLSE strains with MIC >300: 0
  No. of BLSE strains with MIC ≦50: 10
BLSE strains; 2.83 mmol/l of active EDTA
  No. of BLSE strains with MIC 150: 0
  No. of BLSE strains with MIC 200: 0
  No. of BLSE strains with MIC 300: 0
  No. of BLSE strains with MIC >300: 0
  No. of BLSE strains with MIC ≦50: 10
IMP strains; 0 mmol/l of EDTA
  No. of IMP strains with MIC 150: 0
  No. of IMP strains with MIC 200: 0
  No. of IMP strains with MIC 300: 0
  No. of IMP strains with MIC >300: 1
  No. of IMP strains with MIC ≦50: 12
IMP strains; 1.77 mmol/l of active EDTA
  No. of IMP strains with MIC 150: 0
  No. of IMP strains with MIC 200: 0
  No. of IMP strains with MIC 300: 0
  No. of IMP strains with MIC >300: 1
  No. of IMP strains with MIC ≦50: 12
IMP strains; 2.12 mmol/l of active EDTA
  No. of IMP strains with MIC 150: 0
  No. of IMP strains with MIC 200: 0
  No. of IMP strains with MIC 300: 0
  No. of IMP strains with MIC >300: 1
  No. of IMP strains with MIC ≦50: 12
IMP strains; 2.47 mmol/l of active EDTA
  No. of IMP strains with MIC 150: 0
  No. of IMP strains with MIC 200: 0
  No. of IMP strains with MIC 300: 0
  No. of IMP strains with MIC >300: 1
  No. of IMP strains with MIC ≦50: 12
IMP strains; 2.83 mmol/l of active EDTA
  No. of IMP strains with MIC 150: 0
  No. of IMP strains with MIC 200: 0
  No. of IMP strains with MIC 300: 0
  No. of IMP strains with MIC >300: 1
  No. of IMP strains with MIC ≦50: 12
OXA-48 strains [3]; 0 mmol/l of EDTA
  No. of OXA-48 strains with MIC 150: 0
  No. of OXA-48 strains with MIC 200: 0
  No. of OXA-48 strains with MIC 300: 3
  No. of OXA-48 strains with MIC >300: 12
  No. of OXA-48 strains with MIC ≦50: 0
OXA-48 strains [3]; 1.77 mmol/l of active EDTA
  No. of OXA-48 strains with MIC 150: 0
  No. of OXA-48 strains with MIC 200: 0
  No. of OXA-48 strains with MIC 300: 0
  No. of OXA-48 strains with MIC >300: 15
  No. of OXA-48 strains with MIC ≦50: 0
OXA-48 strains [3]; 2.12 mmol/l of active EDTA
  No. of OXA-48 strains with MIC 150: 0
  No. of OXA-48 strains with MIC 200: 0
  No. of OXA-48 strains with MIC 300: 0
  No. of OXA-48 strains with MIC >300: 15
  No. of OXA-48 strains with MIC ≦50: 0
OXA-48 strains [3]; 2.47 mmol/l of active EDTA
  No. of OXA-48 strains with MIC 150: 0
  No. of OXA-48 strains with MIC 200: 0
  No. of OXA-48 strains with MIC 300: 2
  No. of OXA-48 strains with MIC >300: 13
  No. of OXA-48 strains with MIC ≦50: 0
OXA-48 strains [3]; 2.83 mmol/l of active EDTA
  No. of OXA-48 strains with MIC 150: 1
  No. of OXA-48 strains with MIC 200: 0
  No. of OXA-48 strains with MIC 300: 3
  No. of OXA-48 strains with MIC >300: 8
  No. of OXA-48 strains with MIC ≦50: 3
KPC strains; 0 mmol/l of EDTA
  No. of KPC strains with MIC 150: 0
  No. of KPC strains with MIC 200: 0
  No. of KPC strains with MIC 300: 0
  No. of KPC strains with MIC >300: 1
  No. of KPC strains with MIC ≦50: 18
KPC strains; 1.77 mmol/l of active EDTA
  No. of KPC strains with MIC 150: 0
  No. of KPC strains with MIC 200: 0
  No. of KPC strains with MIC 300: 0
  No. of KPC strains with MIC >300: 1
  No. of KPC strains with MIC ≦50: 18
KPC strains; 2.12 mmol/l of active EDTA
  No. of KPC strains with MIC 150: 0
  No. of KPC strains with MIC 200: 0
  No. of KPC strains with MIC 300: 0
  No. of KPC strains with MIC >300: 1
  No. of KPC strains with MIC ≦50: 18
KPC strains; 2.47 mmol/l of active EDTA
  No. of KPC strains with MIC 150: 0
  No. of KPC strains with MIC 200: 0
  No. of KPC strains with MIC 300: 0
  No. of KPC strains with MIC >300: 1
  No. of KPC strains with MIC ≦50: 18
KPC strains; 2.83 mmol/l of active EDTA
  No. of KPC strains with MIC 150: 0
  No. of KPC strains with MIC 200: 0
  No. of KPC strains with MIC 300: 0
  No. of KPC strains with MIC >300: 0
  No. of KPC strains with MIC ≦50: 19
[4]
  strains resistant to temocillin: 32/35

— patent US9562899B2, “Method of detecting OXA-048 carbapenemase producing bacteria” (BIOMÉRIEUX, priority 2012, dated 2017)
